Test results published in publication PMC4659538, “Human GAPDH Is a Target of Aspirin’s Primary Metabolite Salicylic Acid and Its Derivatives” (PLoS ONE, 2015).

Columns and labels:
[1] = molecular target: T1, human Glyceraldehyde 3-Phosphate Dehydrogenase (HsGAPDH) (Homo sapiens, UniProt P04406); assay: SPR competition with immobilized 3AESA; competition of 4AzSA photoaffinity crosslinking; format: binding
T1 construct: gene GAPDH; N-terminally His-tagged human GAPDH, expressed in E. coli

[2] = molecular target: T1, human Glyceraldehyde 3-Phosphate Dehydrogenase (HsGAPDH); assay: UV photoaffinity crosslinking ([…]) with anti-SA immunoblot; format: binding

T1 sequence (P04406 whole entry): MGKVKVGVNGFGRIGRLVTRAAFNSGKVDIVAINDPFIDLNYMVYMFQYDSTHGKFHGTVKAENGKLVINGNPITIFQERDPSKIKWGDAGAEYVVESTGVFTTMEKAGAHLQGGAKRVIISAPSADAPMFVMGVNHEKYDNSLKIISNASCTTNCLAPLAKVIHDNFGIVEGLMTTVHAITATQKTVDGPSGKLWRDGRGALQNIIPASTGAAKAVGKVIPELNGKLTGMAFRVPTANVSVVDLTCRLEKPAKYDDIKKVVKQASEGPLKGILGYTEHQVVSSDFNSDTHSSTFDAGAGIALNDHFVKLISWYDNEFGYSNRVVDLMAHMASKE

Row | Structure (SMILES) | SPR competition with immobilized 3AESA; competition of 4AzSA photoaffinity cross [1] | UV photoaffinity crosslinking (0.05 mM) with anti-SA immunoblot [2]
1 | O=C(O)c1ccccc1O [SA, Salicylic acid] | suppression of this interaction required millimolar concentrations of SA (Fig 2B) | –
2 | [N-]=[N+]=Nc1ccc(C(=O)O)c(O)c1 [4AzSA, 4-azido salicylic acid] | – | Recombinant HsGAPDH crosslinked with 4AzSA, and this crosslinking was suppressed in the presence of increasing levels of SA.
